Experimental data taken from patent US8802353B2, “Compound for resist and radiation-sensitive composition specification” (Mitsubishi Gas Chemical Company, Inc., priority 2004, dated 2014).

What was measured:
Assay type in all cases: physicochemical
[1] = Glass transition temperature, crystallization temperature and quantity of crystallization heat (DSC); conditions: for Glass transition temperature: 20° C./min, nitrogen gas flow; for Glass transition temperature-Crystallization temperature: rating of the difference
Experimental: A sample (about 10 mg) placed in a non-sealed aluminum container was heated to a temperature higher than the melting point at a temperature rising rate of 20° C./min in a nitrogen gas flow (50 ml/min). After being rapidly cooled, the sample was again heated to a temperature higher than the melting point at a temperature rising rate of 20° C./min in a nitrogen gas flow (30 ml/min). After being rapidly cooled, the sample was again heated to 400° C. at a temperature rising rate of 20° C./min in a nitrogen gas flow (30 ml/min), to conduct a differential scanning calorimetric analysis using DSC/TA-50WS manufactured by Shimadzu Corporation. The middle point of the region at which the base line turned discontinuous (the point at which the specific heat reduced to half) was taken as the glass transition temperature (Tg) and the temperature of the exothermic peak after the discontinuous region was taken as the crystallization temperature. The quantity of crystallization heat was determined by the area of the region which was surrounded by the exothermic peak and the base line. The sample was rated A when meeting Tg≧130° C., and rated C when meeting Tg≦130° C. Also, the sample was rated A when meeting (glass transition temperature)−(crystallization temperature)≧70° C., and rated C when meeting (glass transition temperature)-(crystallization temperature)<70° C.

[2] = Ultraviolet-visible absorption spectra, absorptivity coefficient at 248 nm; conditions: 0.01 g/L methanol solution
Experimental: From the ultraviolet-visible absorption spectra of a 0.01 g/L methanol solution of each of Compounds 103, 105 and 108 measured by an autographic spectrophotometer “UV-3100PC” manufactured by Shimadzu Corporation, the absorptivity coefficient at 248 nm of each compound was determined. The absorptivity coefficient was 43.4 L/(cm·g) for Compound 103, 47.4 L/(cm·g) for Compound 105, and 16.9 L/(cm·g) for Compound 108. The absorptivity coefficient is sufficiently larger than 15 L/(cm·g) in any of the compounds, to indicate that the compounds, particularly Compounds 103 and 105, are useful as the raw material of the compound B for forming shade masks. The compounds B produced from these compounds and the radiation-sensitive composition containing such compounds B also have a high absorptivity and are useful for forming shade masks.

[3] = Adhesion to silicon substrate; parameters: key: rated A when the film was not peeled from the silicon wafer; rated C when peeled off; conditions: silicon wafer surface-treated with silane coupling agent
Experimental: The resist film formed in (2-2) was tested for its adhesion to the silicon wafer which was surface-treated with a silane coupling agent. The sample was rated A when the film was not peeled from the silicon wafer, and rated C when peeled off.

[4] = Film-forming property (spin-coated film on silicon wafer); parameters: key: rated C when the film was clouded or its surface was roughened; rated B when the film was partly clouded or roughened; rated A when the film had a good surface flatness without causing clouding; conditions: 3% by weight solution spin-coated, 110° C. 3 min
Excerpt: A 3% by weight solution of the compound B or a mixture (compound B and polyphenol A) in PGME/PE (1/2 by weight) or acetone when not dissolved in PGME/PE was spin-coated on a silicon wafer which had been surface-treated with a silane coupling agent, to form a resist film with a thickness of about 0.05 μm.

[5] = Solubility in safety solvent; conditions: 23° C.; PGMEA, PGME, ethyl lactate, butyl acetate, methyl 3-methoxypropionate, ethyl propionate
Experimental: The solubility of the compound B was tested at 23° C. using propylene glycol monomethyl ether acetate, propylene glycol monomethyl ether, ethyl lactate, butyl acetate, methyl 3-methoxypropionate and ethyl propionate. The sample was rated A when dissolved in any one of the above solvents in a concentration of 5 wt % or more, rated B when dissolved in a concentration of 0.1 to 5 wt %, and rated C when dissolved only in a concentration of less than 0.1 wt %.

| SMILES | Glass transition temperature Rating ([1]; DSC) | Glass transition temperature ([1]; DSC) [°C] | Crystallization temperature ([1]; DSC, exothermic peak) [°C] | Glass transition temperature-Crystallization temperature [1] | absorptivity coefficient at 248 nm [2] [L/cm/g] | Adhesion to silicon substrate [3] | film-forming property [4] | Solubility to safety solvent [5] |
| --- | --- | --- | --- | --- | --- | --- | --- | --- |
| Cc1cc(O)c(C(C)C)cc1C(c1ccc2cc(C(c3cc(C(C)C)c(O)cc3C)c3cc(C(C)C)c(O)cc3C)ccc2c1)c1cc(C(C)C)c(O)cc1C [Compound 103] | C (rated C when meeting Tg≦130° C.) | 116 | 190 | A (rated A when meeting (glass transition temperature)−(crystallization temperature)≧70° C.) | 43.4 | – | – | – |
| Cc1cc(C(c2ccc3ccc(C(c4cc(C)c(O)c(C)c4C)c4cc(C)c(O)c(C)c4C)cc3c2)c2cc(C)c(O)c(C)c2C)c(C)c(C)c1O [Compound 105] | A (rated A when meeting Tg≧130° C.) | 156 | – | A (rated A when meeting (glass transition temperature)−(crystallization temperature)≧70° C.) | 47.4 | – | – | – |
| Cc1cc(C(c2cc(C(c3cc(C)c(O)c(C)c3C)c3cc(C)c(O)c(C)c3C)cc(C(c3cc(C)c(O)c(C)c3C)c3cc(C)c(O)c(C)c3C)c2)c2cc(C)c(O)c(C)c2C)c(C)c(C)c1O [Compound 108] | A (rated A when meeting Tg≧130° C.) | 125 | – | A (rated A when meeting (glass transition temperature)−(crystallization temperature)≧70° C.) | 16.9 | – | – | – |
| CCOC(C)Oc1ccc(C(C)(c2ccc(O)c(C)c2)c2ccc3ccccc3c2)cc1C (stereo not shown) [Compound 207, reference compound] | – | – | – | – | – | A | A | A (rated A when dissolved in any one of the above solvents in a concentration of 5 wt % or more) |
| Cc1cc(C(C)(c2ccc(OC(C)OC3CCCCC3)c(C)c2)c2ccc3ccccc3c2)ccc1O (stereo not shown) [Compound 208, reference compound] | – | – | – | – | – | A | A | A (rated A when dissolved in any one of the above solvents in a concentration of 5 wt % or more) |
